Key:
Format in all cases: in vivo
Setaria viridis (SETVI) = assay: Herbicidal pre-emergence action, test C (Table C4); details: dosage 1280 g/ha; visual scoring after about 3 weeks; 100% = plants have died, 0% = like control plants
Text: (§1) Seeds of mono- and dicotyledonous weed plants were placed in plastic pots in sandy loam soil (doubly sown with one species each of mono- or dicotyledonous weed plants per pot) and covered with soil. The compounds of the invention, formulated in the form of wettable powders (WP) or as emulsion concentrates (EC), were then applied onto the surface of the covering soil as aqueous suspension or emulsion with addition of 0.5% additive at a water application rate of 600 liters per hectare (converted). After the treatment, the pots were placed in a greenhouse and kept under good growth conditions for the test plants. After about 3 weeks, the effect of the preparations was scored visually in comparison with untreated controls as percentages. For example, 100% activity=the plants have died, 0% activity=like control plants. Tables C1 to C12 below show the effects of selected compounds of the general formula (I) according to Table 1 on various harmful plants and an application rate corresponding to 1280 or 320 g/ha, which were obtained by the experimental procedure mentioned above.

[1] = tested on: harmful plants ABUTH, AMARE, ECHCG, LOLRI, MATIN, POAAN, SETVI, STEME, ALOMY, DIGSA, KCHSC and VERPE; assay: Herbicidal post-emergence action, summary of Tables B1-B12; details: application rate of 1280 or 320 g of active ingredient per hectare; summary in words
Method: Seeds of mono- and dicotyledonous weed plants were placed in plastic pots in sandy loam soil (doubly sown with in each case one species of mono- or dicotyledonous weed plants per pot), covered with soil and cultivated in a greenhouse under controlled growth conditions. 2 to 3 weeks after sowing, the test plants were treated at the one-leaf stage. The compounds of the invention, formulated in the form of wettable powders (WP) or as emulsion concentrates (EC), were applied onto the green parts of the plants as aqueous suspension or emulsion with addition of 0.5% additive at a water application rate of 600 liters per hectare (converted). After the test plants had been kept in the greenhouse under optimum growth conditions for about 3 weeks, the activity of the preparations was rated visually in comparison to untreated controls.
(§2) For example, 100% activity=the plants have died, 0% activity=like control plants.
Tables B1 to B12 below show the effects of selected compounds of the general formula (I) according to Table 1 on various harmful plants and an application rate corresponding to 1280 or 320 g/ha, which were obtained by the experimental procedure mentioned above.
As the results of Tables B1-B12 show, compounds no.

[2] = tested on: Alopecurus myosuroides (ALOMY); assay: Herbicidal post-emergence action (Table B9); details: rated visually after about 3 weeks, 100% = plants have died, 0% = like control plants
Method: (§3) Seeds of mono- and dicotyledonous weed plants were placed in plastic pots in sandy loam soil (doubly sown with in each case one species of mono- or dicotyledonous weed plants per pot), covered with soil and cultivated in a greenhouse under controlled growth conditions. 2 to 3 weeks after sowing, the test plants were treated at the one-leaf stage. The compounds of the invention, formulated in the form of wettable powders (WP) or as emulsion concentrates (EC), were applied onto the green parts of the plants as aqueous suspension or emulsion with addition of 0.5% additive at a water application rate of 600 liters per hectare (converted). After the test plants had been kept in the greenhouse under optimum growth conditions for about 3 weeks, the activity of the preparations was rated visually in comparison to untreated controls. For example, 100% activity=the plants have died, 0% activity=like control plants. Tables B1 to B12 below show the effects of selected compounds of the general formula (I) according to Table 1 on various harmful plants and an application rate corresponding to 1280 or 320 g/ha, which were obtained by the experimental procedure mentioned above.

Stellaria media (STEME) [3] = assay: Herbicidal pre-emergence action, test C (Table C8); details: visual scoring after about 3 weeks, 100% = plants have died, 0% = like control plants
Text: as §1

[4] = tested on: Digitaria sanguinalis (DIGSA); assay: Herbicidal post-emergence action (Table B10); details: dosage 1280 g/ha; visual rating about 3 weeks after treatment; 100% = plants have died, 0% = like control plants
Method: as §3

Veronica persica (VERPE) [5] = assay: Herbicidal post-emergence action (Table B12); details: visual rating about 3 weeks after treatment, 100% = plants have died, 0% = like control plants
Method: as §3

Bassia scoparia (KCHSC) = assay: Herbicidal post-emergence action (Table B11); details: visual rating about 3 weeks after treatment, 100% = plants have died, 0% = like control plants
Method: as §3

[6] = tested on: Echinochloa crus-galli (ECHCG); assay: Herbicidal post-emergence action (Table B1); details: rated visually after about 3 weeks, 100% = plants have died, 0% = like control plants
Method: as §3

Poa annua (POAAN) [7] = assay: Herbicidal post-emergence action (Table B3); details: rated visually after about 3 weeks, 100% = plants have died, 0% = like control plants
Method: as §3

Veronica persica (VERPE) [8] = assay: Herbicidal pre-emergence action, test C (Table C12); details: visual scoring vs untreated controls
Text: as §1

[9] = tested on: Abutilon theophrasti (ABUTH); assay: Herbicidal post-emergence action (Table B5); details: rated visually after about 3 weeks, 100% = plants have died, 0% = like control plants
Method: as §3

[10] = tested on: Matricaria inodora (MATIN); assay: Herbicidal pre-emergence action, test C (Table C7); details: dosage 1280 g/ha; visual scoring after about 3 weeks; 100% = plants have died, 0% = like control plants
Text: as §1

[11] = tested on: Digitaria sanguinalis (DIGSA); assay: Herbicidal pre-emergence action, test C (Table C10); details: dosage 1280 g/ha; visual scoring after about 3 weeks; 100% = plants have died, 0% = like control plants
Text: as §1

[12] = tested on: harmful plants ABUTH, AMARE, ECHCG, LOLRI, MATIN, POAAN, SETVI, STEME, ALOMY, DIGSA, KCHSC and VERPE; assay: Herbicidal pre-emergence action (test C), summary of Tables C1-C12; details: application rate of 1280 or 320 g of active ingredient per hectare; summary in words
Text: as §1, with “percentages.” for “percentages. For example, 100% activity=the plants have died, 0% activity=like control plants. Tables C1 to C12 below show the effects of selected compounds of the general formula (I) according to Table 1 on various harmful plants and an application rate corresponding to 1280 or 320 g/ha, which were obtained by the experimental procedure mentioned above.”
as §2
Tables C1 to C12 below show the effects of selected compounds of the general formula (I) according to Table 1 on various harmful plants and an application rate corresponding to 1280 or 320 g/ha, which were obtained by the experimental procedure mentioned above.
As the results of Tables C1-C12 show, compounds no.

Stellaria media (STEME) [13] = assay: Herbicidal post-emergence action (Table B8); details: visual rating about 3 weeks after treatment, 100% = plants have died, 0% = like control plants
Method: as §3

[14] = tested on: Alopecurus myosuroides (ALOMY); assay: Herbicidal pre-emergence action, test C (Table C9); details: dosage 1280 g/ha; visual scoring after about 3 weeks; 100% = plants have died, 0% = like control plants
Text: as §1

Poa annua (POAAN) [15] = assay: Herbicidal pre-emergence action, test C (Table C3); details: visual scoring after about 3 weeks, 100% = plants have died, 0% = like control plants
Text: as §1

[16] = tested on: Amaranthus retroflexus (AMARE); assay: Herbicidal post-emergence action (Table B6); details: visual rating about 3 weeks after treatment, 100% = plants have died, 0% = like control plants
Method: as §3

[17] = tested on: Abutilon theophrasti (ABUTH); assay: Herbicidal pre-emergence action, test C (Table C5); details: visual scoring after about 3 weeks, 100% = plants have died, 0% = like control plants
Text: as §1

[18] = tested on: Amaranthus retroflexus (AMARE); assay: Herbicidal pre-emergence action, test C (Table C6); details: visual scoring after about 3 weeks, 100% = plants have died, 0% = like control plants
Text: as §1

Structure (SMILES)	Pre-emergence action against Setaria viridis (SETVI) (Setaria viridis (SETVI)) [%]	herbicidal activity against the harmful plants of Tables B1-B12 in post-emergence treatment [1]	Post-emergence action against Alopecurus myosuroides (ALOMY) ([2]; 320 g/ha) [%]	Pre-emergence action against Stellaria media (STEME) (Stellaria media (STEME) [3]; dosage 320 g/ha) [%]	Pre-emergence action against Stellaria media (STEME) (Stellaria media (STEME) [3]; dosage 1280 g/ha) [%]	Post-emergence action against Digitaria sanguinalis (DIGSA) [4] [%]	Post-emergence action against Veronica persica (VERPE) (Veronica persica (VERPE) [5]; dosage 1280 g/ha) [%]	Post-emergence action against Poa annua (POAAN) (Poa annua (POAAN) [7]; 320 g/ha) [%]	Post-emergence action against Poa annua (POAAN) (Poa annua (POAAN) [7]; 1280 g/ha) [%]	Pre-emergence action against Veronica persica (VERPE) (Veronica persica (VERPE) [8]; dosage 1280 g/ha) [%]	Post-emergence action against Abutilon theophrasti (ABUTH) ([9]; 1280 g/ha) [%]	Pre-emergence action against Matricaria inodora (MATIN) [10] [%]	Pre-emergence action against Digitaria sanguinalis (DIGSA) [11] [%]	herbicidal activity against the harmful plants of Tables C1-C12 in pre-emergence treatment [12]	Post-emergence action against Stellaria media (STEME) (Stellaria media (STEME) [13]; dosage 1280 g/ha) [%]	Pre-emergence action against Alopecurus myosuroides (ALOMY) [14] [%]	Pre-emergence action against Poa annua (POAAN) (Poa annua (POAAN) [15]; dosage 1280 g/ha) [%]	Post-emergence action against Amaranthus retroflexus (AMARE) ([16]; dosage 1280 g/ha) [%]	Post-emergence action against Veronica persica (VERPE) (Veronica persica (VERPE) [5]; dosage 320 g/ha) [%]	Pre-emergence action against Amaranthus retroflexus (AMARE) ([18]; dosage 1280 g/ha) [%]	further results
Cc1ccc(-c2cc(C(F)F)no2)c(Oc2ccc(Cl)cn2)c1 [Example 1-26]	90	very good herbicidal activity	100	100	100	90	100	100	100	90	100	100	90	very good herbicidal activity	100	90	100	100	–	–	Post-emergence action against Alopecurus myosuroides (ALOMY) ([2]; 1280 g/ha): 100%; Post-emergence action against Bassia scoparia (KCHSC) (Bassia scoparia (KCHSC); dosage 320 g/ha): 90%; Post-emergence action against Bassia scoparia (KCHSC) (Bassia scoparia (KCHSC); dosage 1280 g/ha): 100%; Post-emergence action against Echinochloa crus-galli (ECHCG) ([6]; 320 g/ha): 100%; Post-emergence action against Echinochloa crus-galli (ECHCG) ([6]; 1280 g/ha): 100%; Post-emergence action against Abutilon theophrasti (ABUTH) ([9]; 320 g/ha): 90%; Pre-emergence action against Poa annua (POAAN) (Poa annua (POAAN) [15]; dosage 320 g/ha): 90%; Pre-emergence action against Abutilon theophrasti (ABUTH) ([17]; dosage 1280 g/ha): 90%
CCc1ccc(Oc2cccc(CC)c2-c2cc(C(F)F)no2)nc1 [Example 1-60]	100	very good herbicidal activity	100	100	100	100	100	90	100	100	90	100	100	very good herbicidal activity	100	–	100	100	100	100	Post-emergence action against Alopecurus myosuroides (ALOMY) ([2]; 1280 g/ha): 100%; Post-emergence action against Bassia scoparia (KCHSC) (Bassia scoparia (KCHSC); dosage 1280 g/ha): 100%; Post-emergence action against Stellaria media (STEME) (Stellaria media (STEME) [13]; dosage 320 g/ha): 100%; Post-emergence action against Amaranthus retroflexus (AMARE) ([16]; dosage 320 g/ha): 100%
FC(F)c1cc(-c2c(Oc3ccc(Cl)cn3)cccc2C2CC2)on1 [Example 1-77]	100	very good herbicidal activity	–	100	100	100	100	100	100	100	90	–	100	very good herbicidal activity	100	100	100	100	100	100	Pre-emergence action against Veronica persica (VERPE) (Veronica persica (VERPE) [8]; dosage 320 g/ha): 90%; Pre-emergence action against Amaranthus retroflexus (AMARE) ([18]; dosage 320 g/ha): 90%; Post-emergence action against Stellaria media (STEME) (Stellaria media (STEME) [13]; dosage 320 g/ha): 100%
Cc1ccnc(-c2ccccc2Oc2ccc(Cl)cn2)c1 [Example 1-81]	–	very good herbicidal activity	–	–	100	–	100	–	90	100	90	90	100	very good herbicidal activity	100	90	100	100	100	100	Pre-emergence action against Abutilon theophrasti (ABUTH) ([17]; dosage 320 g/ha): 100%; Pre-emergence action against Abutilon theophrasti (ABUTH) ([17]; dosage 1280 g/ha): 100%
